Assay results: PubChem BioAssay (NCI)
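Dose response: 5 concentrations. Exposure: 48 h. Format: 96-well plates. Endpoint: linear interpolation; highest concentration if not reached. Here, GI50 denotes the concentration required for 50% inhibition of growth. The concentration for full growth arrest is given as TGI.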

What was measured:
Assay in all cases: inhibition of tumour cell growth, NCI panel, 48 h
786-0 renal = tested on: 786-0 renal
A498 renal = tested on: A498 renal
A549 NSCLC = tested on: A549 NSCLC
ACHN renal = tested on: ACHN renal
BT-549 breast = tested on: BT-549 breast
CAKI-1 renal = tested on: CAKI-1 renal
CCRF-CEM leukemia = tested on: CCRF-CEM leukemia
COLO 205 colon = tested on: COLO 205 colon
DU-145 prostate = tested on: DU-145 prostate
EKVX NSCLC = tested on: EKVX NSCLC
HCC-2998 colon = tested on: HCC-2998 colon
HCT-116 colon = tested on: HCT-116 colon
HCT-15 colon = tested on: HCT-15 colon
HL-60(TB) leukemia = tested on: HL-60(TB) leukemia
HOP-62 NSCLC = tested on: HOP-62 NSCLC
HOP-92 NSCLC = tested on: HOP-92 NSCLC
HS 578T breast = tested on: HS 578T breast
IGROV1 ovarian = tested on: IGROV1 ovarian
K-562 leukemia = tested on: K-562 leukemia
KM12 colon = tested on: KM12 colon
LOX IMVI melanoma = tested on: LOX IMVI melanoma
M14 melanoma = tested on: M14 melanoma
MALME-3M melanoma = tested on: MALME-3M melanoma
MCF7 breast = tested on: MCF7 breast
MDA-MB-231 breast = tested on: MDA-MB-231 breast
MDA-MB-435 = tested on: MDA-MB-435
MOLT-4 leukemia = tested on: MOLT-4 leukemia
NCI-H226 lung = tested on: NCI-H226 lung
NCI-H23 lung = tested on: NCI-H23 lung
NCI-H460 lung = tested on: NCI-H460 lung
NCI-H522 lung = tested on: NCI-H522 lung
NCI/ADR-RES ovarian = tested on: NCI/ADR-RES ovarian
OVCAR-3 ovarian = tested on: OVCAR-3 ovarian
OVCAR-4 ovarian = tested on: OVCAR-4 ovarian
OVCAR-5 ovarian = tested on: OVCAR-5 ovarian
OVCAR-8 ovarian = tested on: OVCAR-8 ovarian
PC-3 prostate = tested on: PC-3 prostate
RPMI-8226 leukemia = tested on: RPMI-8226 leukemia
SF-268 CNS = tested on: SF-268 CNS
SF-295 CNS = tested on: SF-295 CNS
SF-539 CNS = tested on: SF-539 CNS
SK-MEL-2 melanoma = tested on: SK-MEL-2 melanoma
SK-MEL-28 melanoma = tested on: SK-MEL-28 melanoma
SK-MEL-5 melanoma = tested on: SK-MEL-5 melanoma
SK-OV-3 ovarian = tested on: SK-OV-3 ovarian
SN12C renal = tested on: SN12C renal
SNB-19 CNS = tested on: SNB-19 CNS
SNB-75 CNS = tested on: SNB-75 CNS
SR leukemia = tested on: SR leukemia
SW-620 colon = tested on: SW-620 colon
T-47D breast = tested on: T-47D breast
TK-10 renal = tested on: TK-10 renal
U251 CNS = tested on: U251 CNS
UACC-257 melanoma = tested on: UACC-257 melanoma
UACC-62 melanoma = tested on: UACC-62 melanoma
UO-31 renal = tested on: UO-31 renal

For `O=S(=O)(NCCCNc1nccc(-c2c(-c3cccc(F)c3)nc3occn23)n1)c1cccc2ccccc12`, the GI50 (786-0 renal) was 4.94 µM, the TGI (786-0 renal) was > 100 µM and the GI50 (A498 renal) was 8.36 µM. The TGI (A498 renal) was > 100 µM, the GI50 (A549 NSCLC) was 6.67 µM and the TGI (A549 NSCLC) was > 100 µM. For the same molecule, the GI50 (ACHN renal) was 3.64 µM, the TGI (ACHN renal) was > 100 µM and the GI50 (BT-549 breast) was 4.44 µM. The TGI (BT-549 breast) was > 100 µM, the GI50 (CAKI-1 renal) was 3.57 µM and the TGI (CAKI-1 renal) was > 100 µM. For the same molecule, the GI50 (CCRF-CEM leukemia) was 5.48 µM, the TGI (CCRF-CEM leukemia) was > 100 µM and the GI50 (COLO 205 colon) was 4.64 µM. The TGI (COLO 205 colon) was > 100 µM, the GI50 (DU-145 prostate) was 6.97 µM and the TGI (DU-145 prostate) was > 100 µM. For the same molecule, the GI50 (EKVX NSCLC) was 6.04 µM, the TGI (EKVX NSCLC) was > 100 µM and the GI50 (HCC-2998 colon) was 2.52 µM. For the same molecule, the TGI (HCC-2998 colon) was 5.74 µM, the GI50 (HCT-116 colon) was 3.71 µM and the TGI (HCT-116 colon) was > 100 µM. The GI50 (HCT-15 colon) was 3.31 µM, the TGI (HCT-15 colon) was > 100 µM and the GI50 (HL-60(TB) leukemia) was 4.21 µM. The TGI (HL-60(TB) leukemia) was 72.2 µM, the GI50 (HOP-62 NSCLC) was 97.1 µM and the TGI (HOP-62 NSCLC) was > 100 µM. The GI50 (HOP-92 NSCLC) was > 100 µM, the TGI (HOP-92 NSCLC) was > 100 µM and the GI50 (HS 578T breast) was 8.36 µM. For the same molecule, the TGI (HS 578T breast) was > 100 µM, the GI50 (IGROV1 ovarian) was 3.33 µM and the TGI (IGROV1 ovarian) was > 100 µM. For the same molecule, the GI50 (K-562 leukemia) was 2.87 µM, the TGI (K-562 leukemia) was > 100 µM and the GI50 (KM12 colon) was 3.8 µM. For the same molecule, the TGI (KM12 colon) was > 100 µM, the GI50 (LOX IMVI melanoma) was 4.28 µM and the TGI (LOX IMVI melanoma) was > 100 µM. The GI50 (M14 melanoma) was 5.75 µM, the TGI (M14 melanoma) was > 100 µM and the GI50 (MALME-3M melanoma) was 5.24 µM. For the same molecule, the TGI (MALME-3M melanoma) was > 100 µM, the GI50 (MCF7 breast) was 4.07 µM and the TGI (MCF7 breast) was > 100 µM. For the same molecule, the GI50 (MDA-MB-231 breast) was 3.13 µM, the TGI (MDA-MB-231 breast) was > 100 µM and the GI50 (MDA-MB-435) was 3.75 µM. For the same molecule, the TGI (MDA-MB-435) was > 100 µM, the GI50 (MOLT-4 leukemia) was 3.54 µM and the TGI (MOLT-4 leukemia) was > 100 µM. The GI50 (NCI-H226 lung) was 5.12 µM, the TGI (NCI-H226 lung) was > 100 µM and the GI50 (NCI-H23 lung) was 14.8 µM. For the same molecule, the TGI (NCI-H23 lung) was > 100 µM, the GI50 (NCI-H460 lung) was 4.79 µM and the TGI (NCI-H460 lung) was > 100 µM. The GI50 (NCI-H522 lung) was 9.17 µM, the TGI (NCI-H522 lung) was > 100 µM and the GI50 (NCI/ADR-RES ovarian) was 5.52 µM. For the same molecule, the TGI (NCI/ADR-RES ovarian) was > 100 µM, the GI50 (OVCAR-3 ovarian) was 13.5 µM and the TGI (OVCAR-3 ovarian) was > 100 µM. The GI50 (OVCAR-4 ovarian) was 7.66 µM, the TGI (OVCAR-4 ovarian) was > 100 µM and the GI50 (OVCAR-5 ovarian) was 9.6 µM. For the same molecule, the TGI (OVCAR-5 ovarian) was > 100 µM, the GI50 (OVCAR-8 ovarian) was 7.02 µM and the TGI (OVCAR-8 ovarian) was > 100 µM. The GI50 (PC-3 prostate) was 3.38 µM, the TGI (PC-3 prostate) was > 100 µM and the GI50 (RPMI-8226 leukemia) was 4.86 µM. For the same molecule, the TGI (RPMI-8226 leukemia) was > 100 µM, the GI50 (SF-268 CNS) was 7.39 µM and the TGI (SF-268 CNS) was > 100 µM. For the same molecule, the GI50 (SF-295 CNS) was 5.5 µM, the TGI (SF-295 CNS) was > 100 µM and the GI50 (SF-539 CNS) was > 100 µM. The TGI (SF-539 CNS) was > 100 µM, the GI50 (SK-MEL-2 melanoma) was 6.99 µM and the TGI (SK-MEL-2 melanoma) was > 100 µM. The GI50 (SK-MEL-28 melanoma) was 23.6 µM, the TGI (SK-MEL-28 melanoma) was > 100 µM and the GI50 (SK-MEL-5 melanoma) was 3.67 µM. For the same molecule, the TGI (SK-MEL-5 melanoma) was 43.6 µM, the GI50 (SK-OV-3 ovarian) was 3.76 µM and the TGI (SK-OV-3 ovarian) was > 100 µM. The GI50 (SN12C renal) was 3.44 µM, the TGI (SN12C renal) was > 100 µM and the GI50 (SNB-19 CNS) was 9.41 µM. The TGI (SNB-19 CNS) was > 100 µM, the GI50 (SNB-75 CNS) was 3.38 µM and the TGI (SNB-75 CNS) was > 100 µM. For the same molecule, the GI50 (SR leukemia) was 8.79 µM, the TGI (SR leukemia) was > 100 µM and the GI50 (SW-620 colon) was 6.91 µM. For the same molecule, the TGI (SW-620 colon) was > 100 µM, the GI50 (T-47D breast) was 2.59 µM and the TGI (T-47D breast) was > 100 µM. For the same molecule, the GI50 (TK-10 renal) was 11 µM, the TGI (TK-10 renal) was > 100 µM and the GI50 (U251 CNS) was 8.89 µM. For the same molecule, the TGI (U251 CNS) was > 100 µM, the GI50 (UACC-257 melanoma) was 21 µM and the TGI (UACC-257 melanoma) was > 100 µM. The GI50 (UACC-62 melanoma) was 4.28 µM, the TGI (UACC-62 melanoma) was > 100 µM and the GI50 (UO-31 renal) was 3.25 µM. For the same molecule, the TGI (UO-31 renal) was > 100 µM.
